Laboratory results taken from paper PMC6522510 (Nature Communications, 2019).
Read-outs that look alike come from different tables or passages of the source.

Key:
AML cell lines [1] = test: Intracellular drug and phosphorylated metabolites by HPLC with liquid scintillation counting; details: 2 h, 1 µM, all cell lines evaluated
[2] = In vivo tolerability / maximum tolerated dose; set-up: species or system mice; details: multiple doses, intermittent every 3 or 4-day schedule
Experimental: Next, we sought to compare the in vivo efficacy of gemcitabine and cabazitaxel to the standard of care, cytarabine. Due to limitations with tolerability, we have previously treated our AML xenograft models with low-dose cytarabine[13],[31]. […] Tolerability studies of gemcitabine at the same dose and schedule was not tolerated. […] Similarly, we performed tolerability of cabazitaxel using multiple doses on an intermittent every 3 or 4-day schedule; the only tolerable dose was 5 mg/kg.
All animal studies were performed in accordance with Animal Care and Use Programs under protocols approved by the Institutional Animal Care and Use Committee at OSU. We have complied with the relevant ethical considerations for animal research overseen by this committee. Mice were housed in a barrier facility. Non-tumor bearing Ly5.2 C57Bl/6 (BoyJ) mice were treated with 100, 120, or 140 mg kg^−1 gemcitabine on an intermittent schedule every 3 days for 3 weeks; 3 or 6 mg kg^−1 doses were used to evaluate daily for 5 days schedule. All doses were administered by intraperitoneal injection; tolerability was assessed by daily weights and observation of changes in body condition.
Supplementary Figure 12. Establish maximum tolerated dose of gemcitabine. Non-tumor bearing female BoyJ mice were treated on an intermittent schedule every 3 days for 3 weeks with 100, 120, or 140 m gkg-1 gemcitabine (Gem ) or treated on a daily schedule once a day for 5 days with 3 or 6 m gkg-1 Gem. Daily weight of treated mice; data reported as a percent weight loss from day 0. Arrow indicate treatment days.

ML2 = test: Secondary dose-response HTS, Cell Titer Glo; assay type: cell-based, human; details: Homo sapiens, ML-2
MOLM-13 [3] = test: Secondary dose-response HTS, Cell Titer Glo; assay type: cell-based, human; details: MOLM-13; for EC50: Homo sapiens
CHRF288-11 [4] = test: Secondary dose-response HTS, Cell Titer Glo; assay type: cell-based, human; details: for EC50: Homo sapiens
MV4-11 [5] = test: Secondary dose-response HTS, Cell Titer Glo; assay type: cell-based, human; details: MV4-11; for EC50: Homo sapiens
MV4-11 [6] = assay type: cell-based; details: Homo sapiens, 72 h, Cell Titer Glo
CMS [7] = assay type: cell-based; details: Homo sapiens, 72 h, read-out: IC50 CMS
U937 [8] = assay type: cell-based; details: Homo sapiens, U-937; 72 h, Cell Titer Glo
U937 [9] = test: Secondary dose-response HTS, Cell Titer Glo; assay type: cell-based, human; details: Homo sapiens, U-937
[10] = tested on: ML-2-luciferase/YFP+ xenograft; test: In vivo efficacy, survival; set-up: species or system NSG mice; details: ML-2 xenograft, i.p.
CHRF288-11 [11] = assay type: cell-based; details: Homo sapiens; 72 h, Cell Titer Glo; read-out: IC50 CHRF288-11
CMS [12] = test: Secondary dose-response HTS, Cell Titer Glo; assay type: cell-based, human; details: Homo sapiens
THP-1 = assay type: cell-based; details: Homo sapiens, 72 h, Cell Titer Glo
MOLM-13 [13] = assay type: cell-based; details: Homo sapiens, 72 h, Cell Titer Glo
ML-2 = assay type: cell-based; details: Homo sapiens, 72 h, Cell Titer Glo
[14] = tested on: AMKL primary AML blast samples; test: Ex vivo drug treatment of primary AML blasts on mesenchymal stromal cells; assay type: cell-based; details: Homo sapiens; primary blasts on MSC, 96 h
[15] = tested on: Mll-PTD/wt:Flt3ITD/ITD primary transplants; test: In vivo efficacy, survival; set-up: species or system mice
[16] = tested on: AMKL patient-derived xenograft; test: In vivo efficacy, survival; set-up: species or system NSG-SGM3 mice; details: AMKL PDX, i.p.
[17] = tested on: CHRF288-11-luciferase/YFP+ xenograft; test: In vivo efficacy, survival; set-up: species or system NSG mice
CMK = test: Secondary dose-response HTS, Cell Titer Glo; assay type: cell-based, human; details: Homo sapiens, CMK
M07e [18] = test: Secondary dose-response HTS, Cell Titer Glo; assay type: cell-based, human; details: Homo sapiens, M-07e
[19] = tested on: CBFA2T3-GLIS2/JAK2V617F-induced AMKL model; test: In vivo efficacy, survival; set-up: species or system mice; details: CBFA2T3-GLIS2/JAK2V617F-Luc+ quaternary transplants, i.p.
[20] = tested on: Mll-PTD/wt:Flt3ITD/ITD secondary transplants; test: In vivo efficacy, survival; set-up: species or system mice; details: 100 mg kg−1 daily x 5 days, i.p.
M07e [21] = test: cells; set-up: species or system AML cell lines (8); Secondary HTS, 10-point dose-response in triplicate, Cell Titer Glo viability, four-parameter fit EC50; details: M-07e, 72 h, read-out: M07e
[22] = set-up: method as in Wang et al., Biol Blood Marrow Transplant 2014 and others; details: biphasic; ref Wang et al., Biol Blood Marrow Transplant 2014 and others; cited from earlier work
AML cell lines [23] = details: human, 5 min
[24] = secondary high-throughput screen, read-out: average effective concentration, ML-2
[25] = secondary HTS, 72 h, average of triplicate, read-out: EC50 MOLM-13
[26] = secondary HTS, 72 h, average of triplicate, read-out: EC50 CHRF288-11
[27] = secondary HTS, 72 h, average of triplicate, read-out: EC50 MV4-11
[28] = secondary high-throughput screen, read-out: average effective concentration, MV4-11
[29] = secondary HTS, 72 h, average of triplicate, read-out: EC50 U937
[30] = secondary HTS, 72 h, average of triplicate, read-out: EC50 M07e
[31] = secondary high-throughput screen, read-out: average effective concentration, MOLM-13
[32] = secondary high-throughput screen, U937, read-out: average effective concentration, U937
[33] = HTS, secondary high-throughput screen, CMS, read-out: average effective concentration, CMS
[34] = secondary high-throughput screen, M07e, read-out: average effective concentration, M07e
[35] = HTS, secondary high-throughput screen, CHRF288-11, read-out: average effective concentration, CHRF288-11
[36] = secondary high-throughput screen, read-out: average effective concentration, CMK
[37] = secondary high-throughput screen

| EC50 (MOLM-13 [3]; [31]) | Compound | EC50 (ML2; [24]) | EC50 (MOLM-13 [3]; [25]) | EC50 (CHRF288-11 [4]; [26]) | EC50 (MV4-11 [5]; [27]) | EC50 (MV4-11 [5]; [28]) | IC50 (MV4-11 [6]) | IC50 (CMS [7]) | IC50 (U937 [8]) | EC50 (U937 [9]; [29]) | IC50 (CHRF288-11 [11]) | IC50 (THP-1) | IC50 (MOLM-13 [13]) | IC50 (ML-2) | IC50 [14] | EC50 (M07e [18]; [30]) | IC50 (CMS [7]; Cell Titer Glo) | EC50 (U937 [9]; [32]) | EC50 (CMS [12]; [33]) | EC50 (M07e [18]; [34]) | other results |
| --- | --- | --- | --- | --- | --- | --- | --- | --- | --- | --- | --- | --- | --- | --- | --- | --- | --- | --- | --- | --- | --- |
|  | Nc1ccn([C@@H]2O[C@H](COP(=O)(O)OP(=O)(O)OP(=O)(O)O)[C@@H](O)[C@@H]2O)c(=O)n1 [Ara-CTP, cytarabine triphosphate] |  |  |  |  |  |  |  |  |  |  |  |  |  |  |  |  |  |  |  | share of the total intracellular accumulation (AML cell lines [1]): 52–65% |
|  | CO[C@H]1C(=O)[C@]2(C)[C@@H](OC)C[C@H]3OC[C@@]3(OC(C)=O)[C@H]2[C@H](OC(=O)c2ccccc2)[C@]2(O)C[C@H](OC(=O)[C@H](O)[C@@H](NC(=O)OC(C)(C)C)c3ccccc3)C(C)=C1C2(C)C [Cabazitaxel, cabazitaxel] | 0.5 nM | 1 nM | 1 nM | 0.3 nM | 0.34 nM | 1.5 nM | 6.3 nM | 0.8 nM | 1 nM | 2.9 nM | 4.4 nM | 1.2 nM | 1.6 nM | > 50000 nM | 1 nM |  |  |  |  | only tolerable dose [2]: 5 mg/kg; EC50 (ML2; secondary HTS, 72 h, average of triplicate, read-out: EC50 ML2): 1 nM; Median survival ([10]; 5 mg kg−1 q4d): 82 days; EC50 (CMS [12]; HTS, 72 h, read-out: EC50 CMS): 1 nM; Median survival ([15]; mouse, in vivo, ip): 60 days; Median survival ([16]; 5 mg kg−1 q4d): 62 days; Median survival ([17]; CHRF288-11 xenograft, 5 mg kg−1 q4d, i.p.): 44 days; Median survival ([17]; CHRF288-11 xenograft, 5 mg kg−1 q4d, x 2 cycles, i.p.): 40 days; EC50 (CMK; 72 h, read-out: EC50 CMK): 1 nM |
| 47 nM | Nc1nc(Cl)nc2c1ncn2[C@@H]1O[C@H](CO)[C@@H](O)[C@@H]1F [Clofarabine, clofarabine, reference compound] |  | 50 nM | 370 nM | 150 nM |  | 71 nM |  | 56 nM | 90 nM | 332 nM | 90 nM | 37 nM | 173 nM |  | 10 nM | 80 nM | 88 nM | 18 nM | 13 nM | EC50 (CMS [12]; secondary HTS, 72 h, average of triplicate, read-out: EC50 CMS): 20 nM; EC50 (CMK; secondary HTS, 72 h, average of triplicate, read-out: EC50 CMK): 5 nM |
| 1 nM | CC(=O)O[C@@]12CO[C@@H]1C[C@H](O)[C@@]1(C)C(=O)[C@H](O)C3=C(C)[C@@H](OC(=O)[C@H](O)[C@@H](NC(=O)OC(C)(C)C)c4ccccc4)C[C@@](O)([C@@H](OC(=O)c4ccccc4)[C@H]21)C3(C)C [Docetaxel, docetaxel, reference compound] |  |  |  |  | 1 nM | 3 nM | 19.9 nM | 2.1 nM |  | 10.8 nM | 3.2 nM | 2.2 nM | 1.5 nM |  |  |  | 1 nM |  | 1 nM | EC50 (CHRF288-11 [4]; [35]): 500 nM; EC50 (CMS [12]; HTS, read-out: average effective concentration, CMS): 4.4 nM; EC50 (CMK; read-out: average effective concentration, CMK): 1 nM |
|  | Nc1nc(F)nc2c1ncn2[C@@H]1O[C@H](CO)[C@@H](O)[C@@H]1O [Fludarabine, fludarabine, reference compound] | > 10000 nM |  |  |  |  | > 15000 nM |  | 31 nM |  | > 35000 nM | 4120 nM | 1750 nM | 5580 nM |  |  | 65 nM | > 10000 nM | 130 nM | > 10000 nM | average effective concentration, MOLM-13 (MOLM-13 [3]; [37]): Inactive; average effective concentration, CHRF288-11 (CHRF288-11 [4]; secondary high-throughput screen, CHRF288-11): Inactive; average effective concentration, MV4-11 (MV4-11 [5]; [37]): Inactive; EC50 (CMK; [36]): 8100 nM |

| Compound | EC50 (MOLM-13 [3]; [31]) | EC50 (ML2; [24]) | EC50 (MOLM-13 [3]; [25]) | EC50 (CHRF288-11 [4]; [26]) | EC50 (MV4-11 [5]; [27]) | EC50 (MV4-11 [5]; [28]) | IC50 (MV4-11 [6]) | IC50 (CMS [7]) | IC50 (U937 [8]) | EC50 (U937 [9]; [29]) | IC50 (CHRF288-11 [11]) | IC50 (THP-1) | IC50 (MOLM-13 [13]) | IC50 (ML-2) | IC50 [14] | EC50 (M07e [18]; [30]) | IC50 (CMS [7]; Cell Titer Glo) | EC50 (U937 [9]; [32]) | EC50 (CMS [12]; [33]) | EC50 (M07e [18]; [34]) | other results |
| --- | --- | --- | --- | --- | --- | --- | --- | --- | --- | --- | --- | --- | --- | --- | --- | --- | --- | --- | --- | --- | --- |
| Nc1ccn([C@@H]2O[C@H](CO)[C@@H](O)[C@@H]2O)c(=O)n1 [Cytarabine, cytarabine] | 300 nM | 100 nM |  |  |  | 2600 nM | 1980 nM |  | 11 nM |  | 606 nM | 8810 nM | 31 nM | 26 nM | 54 nM |  | 5370 nM | 290 nM | 290 nM |  | Median survival ([19]; 50 mg kg−1 daily x 5 days): 63 days; Median survival ([19]; 100 mg kg−1 daily x 5 days): 80 days; Median survival [20]: 49 days; EC50 (CHRF288-11 [4]; [35]): 1900 nM; EC50 (M07e [21]): > 10000 nM; triphosphate elimination α half-life [22]: 7 to 20 min; triphosphate elimination β half-life [22]: 2 to 3 h; Median survival ([10]; 50 mg kg−1 q4d): 29 days; Median survival ([15]; Mll-PTD/wt:Flt3ITD/ITD primary transplants, 50 mg kg−1 q4d, i.p.): 50 days; higher concentration of cytarabine giving nearly equivalent intracellular exposure to 1 µM gemcitabine (AML cell lines [23]; 10 µM): ~10 fold; uptake at 10 µM cytarabine compared to 1 µM cytarabine (AML cell lines [23]; 10 µM): 1.6–3.7 fold; uptake at 100 µM cytarabine compared to 1 µM cytarabine (AML cell lines [23]; 100 µM): 7–12 fold; Median survival ([16]; 50 mg kg−1 q4d): 56 days; Median survival ([17]; CHRF288-11-Luc+ model, low-dose 6.25 mg/kg once daily for 5 days for 3 weeks): 26 days; Median survival ([17]; CHRF288-11 xenograft, 50 mg kg−1 q4d, i.p.): 25 days; EC50 (CMK; [36]): 320 nM |
